Assay results published in publication PMC8983599 (Cancer Discovery, 2022).
Where two headings read alike, the source gives them in different places. Blank lines part the entries; values can stand above or below the molecule they belong to.

Key:
[1] = tested on: Saa3 expression in mouse primary osteoblasts; test: Saa3 mRNA in primary differentiated mouse calvaria osteoblasts; type: cell-based; settings: 25 nmol/L, 24 hours
[2] = tested on: patient-derived AML cells; test: PDX in NSG mice, combination therapy; type: in vivo; settings: day 22 after initiating therapy
Ido1 = test: CRISPR/Cas9-mediated Ido1 targeting of primary murine MLL/AF9 cells; type: cell-based, mouse; settings: Ido1 exon 3
[3] = Systemic toxicity of epacadostat diet in WT mice; type: in vivo, mouse; settings: epacadostat ad libitum diet 0.8 g/kg
MLL/AF9 AML cells = type: in vivo, mouse
[4] = tested on: patient-derived AML cells; test: Patient-derived AML xenograft; type: in vivo, NSGS mice; settings: epacadostat 300 mg/kg daily gavage
[5] = tested on: Kyn/Trp ratio (indicator of IDO1 activity); test: Serum Kyn and Trp levels; type: in vivo, mouse
murine HTR1B receptor = murine HTR1B receptor (Mus musculus, UniProt P28334); test: [3H]-Kyn binding competition, Htr1b-overexpressing HEK293T membranes; settings: SB9 at ∼90 μmol/L, equal to the concentration administered in vivo
[6] = tested on: Cyclins D1, D2, and E1 (targets of serotonin-HTR1B signaling); test: Bone; type: in vivo, mouse; settings: SB9-treated mice
mouse HTR1B = mouse HTR1B (Mus musculus, UniProt P28334); settings: Fig. S1M
[7] = tested on: leukemic blasts (hCD45+ hCD33+); test: Kyn injection in low AML burden PDX mice; type: in vivo, NSGS mice; settings: Kyn 20mg/kg for 1 week
5-HT1B receptor (HTR1B) = 5-HT1B receptor (HTR1B) (Homo sapiens, UniProt P28222); test: GloSensor Gi/o-mediated cAMP inhibition assay in transfected HEK293T cells; type: cell-based
WEHI-3B cells = test: Proliferation of mouse AML cell line exposed to SAA3; type: cell-based; settings: SAA3 1 μg/mL, 24–72 hours, versus vehicle
[8] = tested on: Ido1 expression in WEHI-3B cells; test: Ido1 mRNA in WEHI-3B cells exposed to recombinant SAA; type: cell-based, mouse; settings: exposed overnight
[9] = tested on: lineage-depleted AML and MDS BM-MNCs; type: cell-based, human; settings: SAA1 5 μg/mL, 24 hours
[10] = tested on: total human BM cells isolated from PDX mice; test: Ex vivo human BM cells isolated from PDX mice; type: cell-based; settings: SAA1 1 μg/mL, 24 hours
THP-1 and OCI-AML3 cells = test: Proliferation of human AML cell lines exposed to SAA1; type: cell-based; settings: SAA1 1 μg/mL, 24–72 hours, versus vehicle
[11] = tested on: AHR target genes (CYP1A1, CYP1A2); test: AHR target gene mRNA in human AML and MDS cells exposed to SAA1; type: cell-based; settings: SAA1 1µg/ml o/n
[12] = tested on: IDO1 expression in OCI-AML3 cells; test: IDO1 mRNA in human AML/MDS cell lines exposed to recombinant proteins; type: cell-based
[13] = tested on: leukemic blasts (hCD45+CD33+); type: in vivo, NSGS mice
[14] = SAA1 i.v., 2- and 8-day treatments

Sequence of 5-HT1B receptor (HTR1B) (P28222 whole entry): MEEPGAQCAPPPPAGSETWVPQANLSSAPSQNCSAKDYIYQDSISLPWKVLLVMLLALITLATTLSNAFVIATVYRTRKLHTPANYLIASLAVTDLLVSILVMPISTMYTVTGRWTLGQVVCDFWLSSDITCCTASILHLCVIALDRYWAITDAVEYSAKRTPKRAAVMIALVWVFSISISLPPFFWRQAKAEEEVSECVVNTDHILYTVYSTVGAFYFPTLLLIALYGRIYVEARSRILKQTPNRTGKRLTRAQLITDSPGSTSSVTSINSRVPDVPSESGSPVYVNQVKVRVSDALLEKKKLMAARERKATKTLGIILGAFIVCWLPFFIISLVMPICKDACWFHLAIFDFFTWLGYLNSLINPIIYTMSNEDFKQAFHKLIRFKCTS
Sequence of mouse HTR1B (P28334 whole entry): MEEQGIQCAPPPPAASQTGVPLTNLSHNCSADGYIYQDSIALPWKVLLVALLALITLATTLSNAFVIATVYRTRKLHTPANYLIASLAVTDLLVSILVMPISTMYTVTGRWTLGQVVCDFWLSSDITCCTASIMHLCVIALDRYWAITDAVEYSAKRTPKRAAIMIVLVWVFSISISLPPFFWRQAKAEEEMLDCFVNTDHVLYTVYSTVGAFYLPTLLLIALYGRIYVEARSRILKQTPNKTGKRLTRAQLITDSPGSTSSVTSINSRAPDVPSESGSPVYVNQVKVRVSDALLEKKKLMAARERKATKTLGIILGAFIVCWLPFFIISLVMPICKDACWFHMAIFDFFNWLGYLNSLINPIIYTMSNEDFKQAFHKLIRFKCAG
Sequence of murine HTR1B receptor (P28334 whole entry): as above

Molecule: NCCc1c[nH]c2ccc(O)cc12 [5-HT, 5-hydroxytryptamine, reference compound]
Saa3 expression in mouse osteoblasts (Htr1b+/+) [1]: had no effect

Molecule: Nc1ccn([C@@H]2O[C@H](CO)[C@@H](O)[C@@H]2O)c(=O)n1 [Ara-C, 1-β-D-arabinofuranosylcytosine]
effect on leukemic burden in SP relative to BM [2]: more sustained in the SP than in BM

Molecule: sgRNA#196: chemically modified mouse sgRNA targeting Ido1 exon 3: CUGCCCACACUGAGCACGGA (chemically modified, pattern not given here)
deletion efficiency (Ido1): ~40%

Molecule: NS(=O)(=O)NCCNc1nonc1C(=NO)Nc1ccc(F)c(Br)c1 [epacadostat]
effect on leukemic burden in SP relative to BM [2]: more pronounced effect in the SP
systemic toxicity [3]: did not show any obvious systemic toxicity
leukemia progression (MLL/AF9 AML cells; epacadostat diet 0.8 g/kg): tendency toward a slower leukemia progression
survival (MLL/AF9 AML cells; epacadostat diet 0.8 g/kg): slight—yet significant—increase in survival
AML burden (MLL/AF9 AML cells; epacadostat diet 1.6 g/kg): significant delay in AML burden
survival (MLL/AF9 AML cells; epacadostat diet 1.6 g/kg, compared with the lower dose): significantly prolonged survival
G0–G1 and G2–M populations of leukemic blasts [4]: remained unchanged
leukemic blast apoptosis [4]: increased leukemic blast apoptosis
proliferation of leukemic blasts (hCD45+CD33+), in vivo cell cycle [4]: less proliferative
reduction in Kyn/Trp levels in blood ([4]; 12-day regimen): ~20%
reduction in AML BM burden ([4]; versus vehicle): ~20%
reduction in serum Kyn levels ([5]; MLL/AF9 mice, epacadostat diet 1.6 g/kg): 35%
reduction in basal (no leukemia) circulating Kyn/Trp levels ([5]; WT mice, epacadostat ad libitum diet 0.8 g/kg): 54%
systemic Kyn/Trp levels in MLL/AF9 leukemic mice ([5]; epacadostat diet 0.8 g/kg): did not reduce the 1.5-fold increase in systemic Kyn/Trp levels

Molecule: Cc1nc(-c2ccc(-c3ccc(C(=O)N4CCc5cc6c(cc54)C4(CCN(C)CC4)CO6)cc3)c(C)c2)no1 [SB224289, 1′-methyl-5-[[2′-methyl-4“-(5-methyl-1,2,4-oxadiazol-3-yl)biphenyl-4-yl]carbonyl]-2,3,6,7-tetrahydro-spiro[furo[2,3-f]indole-3,4-”piperidine]]
effect on Kyn binding to the murine HTR1B receptor (murine HTR1B receptor): no effect
bone expression of Cyclins D1, D2, and E1 [6]: upregulated
protection of MLL/AF9-injected mice (MLL/AF9 AML cells; SB9 5 mg/kg i.p. daily from 1 week after leukemia injection): only partially protected
survival (MLL/AF9 AML cells; SB9 5 mg/kg i.p. daily versus vehicle): significant increase in survival
5-HT binding to HTR1B at the administered dose (mouse HTR1B): effective in abolishing 5-HT binding to HTR1B

mode of action on Gi/o-mediated cAMP production through HTR1B (5-HT1B receptor (HTR1B)): partial agonist
EC50 (5-HT1B receptor (HTR1B); EC50 (nmol/L), cAMP Gi agonist, human HTR1B): ~772 nM
Molecule: Nc1ccccc1C(=O)CC(N)C(=O)O (stereo not drawn) [Kyn, kynurenine]
AML burden in BM and SP [7]: AML burden increased in BM and SP
proliferative capacity of the leukemic blasts [7]: increases
serum SAA3 ([7]; low AML burden PDX mice): increases serum SAA3
Saa3 expression in Htr1b−/− primary osteoblasts [1]: failed to upregulate Saa3 expression
Saa3 expression in mouse osteoblasts (Htr1b+/+) [1]: potently upregulated Saa3 expression

B1: SAA3: recombinant mouse SAA3 (Cusabio), murine ortholog of SAA1 (protein, UniProt P04918 19-122, looked up)
Serum amyloid A-3 protein: QRWVQFMKEAGQGSRDMWRAYSDMKKANWKNSDKYFHARGNYDAARRGPGGAWAAKVISDAREAVQKFTGHGAEDSRADQFANEWGRSGKDPNHFRPAGLPKRY
proliferation of mouse AML cell line (WEHI-3B cells): increased proliferation
Ido1 expression in WEHI-3B cells [8]: upregulated Ido1 expression

B2: SAA1: recombinant human acute-phase protein serum amyloid A1 (PeproTech) (protein, UniProt P0DJI8 19-122, looked up)
Serum amyloid A-1 protein: RSFFSFLGEAFDGARDMWRAYSDMREANYIGSDKYFHARGNYDAAKRGPGGAWAAEVITDARENIQRFFGHGAEDSLADQAANEWGRSGKDPNHFRPAGLPEKY
IDO1 mRNA levels in patient-derived BM-MNCs [9]: increased
proliferation of lineage-depleted AML and MDS BM-MNCs from patient aspirates [9]: promoted proliferation
IDO1 expression in PDX-isolated human cells [10]: upregulated only in response to SAA1 in the PDX AML-isolated human cells
proliferation of human cells from CD34+ healthy injected mice [10]: unresponsive
proliferation of patient-derived cells from AML-injected mice ([10]; versus vehicle): high proliferative activity
proliferation of human AML cell lines (THP-1 and OCI-AML3 cells): increased proliferation
Ido1 expression in WEHI-3B cells [8]: able to upregulate Ido1 expression in WEHI-3B cells with a magnitude similar to SAA3
AHR target gene expression in human AML and MDS cell lines [11]: upregulated most of the main AHR target genes
IDO1 upregulation in other cell lines ([12]; Fig. S4O, exposed o/n to SAA1): observed across several human AML cell lines as well as the MDS-L cell line
IDO1 expression in OCI-AML3 cells ([12]; overnight, 50 ng/mL recombinant protein): the only osteoblast-secreted molecule able to upregulate IDO1 expression
proliferative rate of leukemic blasts (EdU+ cells, S-phase) ([13]; SAA1 100 μg/kg i.v., 2- and 8-day treatments): maintained and prominent increase in the proliferative rate of leukemic blasts
G0–G1 cells of leukemic blasts [13, 14]: decrease
G2–M phase of leukemic blasts [13, 14]: unvarying
increase in AML burden in the BM ([13]; SAA1 i.v., completion of the 8-day treatment): 1.5 fold
